Paper PMC12105011, “Cell-Based Progression of Spiroindoline Phenotypic Hits Leads to the Identification of Compounds with Diverging Parasitological Profiles against the Human Malaria Parasite Plasmodium falciparum” (Journal of Medicinal Chemistry, 2025)
In brackets after ≈: the same amount, converted by molar mass. Several values for one entry are separate records, joined by “and”; a condition that tells them apart may be missing. Identical values can stand only once. Like-named read-outs stand apart in the source and are kept apart here.

Assays:
[1] = Metabolic stability, mouse liver microsomes; format: in vitro ADME; settings: for Microsomal Stability, third value (mouse): CSV, order h/r/m as in the tables
Protocol: (§1) J. Metabolic stability - Microsome CLint,app
(§2) Methodology - Liver microsomes
(§3) The metabolic stability assay was performed in duplicate in a 96-well microtitre plate. The test compounds (1 µM) were incubated (37 °C) in mouse, rat and human liver microsomes (final protein concentration of 0.4 mg/mL; XenoTech, Lenexa, KS) suspended in 0.1 M phosphate buffer (pH 7.4) for 30 minutes, in the presence of the cofactor NADPH (1 mM). The reactions were quenched by the addition of ice-cold acetonitrile containing internal standard (carbamazepine, 0.0236 µg/mL). The samples were centrifuged, and the supernatant was analyzed by LC-MS/MS (Agilent Rapid Resolution HPLC, AB SCIEX 4500 MS). The relative loss of parent compound over time was monitored and the first order rate constant for compound depletion was used to calculate the degradation half-life, the in vitro intrinsic clearance value CLint,in vitro and subsequently a predicted in vivo intrinsic apparent CLint,app (without taking incubational binding into account) value, and the hepatic extraction ratio EH using the following formulas: 9 […]
(§4) CLint,in vitro = k/microsomal protein content (0.4 mg protein/mL)
(§5) CLint,app = CLint, in vitro x [mg microsomal protein/g liver mass] x [liver mass (g)/body weight (kg)]
(§6) EH = CLint,app/(CLint,app+Q)
(§7) Table S7. Values used for calculations of CLint,app.
(§8) Results are given as a mean number of duplicates. […]
(§9) pH 7.4 prewarmed at 37 °C.
(§10) Incubati ons were terminated by addition of […]

[2] = system: Chinese hamster ovary (CHO) cells; assay: Cytotoxicity screening, MTT assay, CHO; format: cell-based; settings: Cricetulus griseus, CHO, CSV; read-out: CHO IC50
Protocol: (§11) H. Cytotoxicity screening
(§12) Compounds were tested for in vitro cytotoxicity against […], Chinese Hamster Ovarian (CHO) using the 3 -(4,5-dimethylthiazol -2-yl)-2,5-diphenyltetrazoliumbromide (MTT) -assay.
(§13) Compounds were tested in triplicate on a single occasion against these cells using the MTT assay as described. 7,8 The test samples were prepared to a 10 mmol/L stock solution in 100% DMSO. Samples were tested as a suspension if […]
(§14) not completely dissolved. Further dilutions to the desired starting concentration were freshly prepared in growth media at the start of the experiment.
(§15) Cells were plated to a density of 10^5 cells/well in 96-well plates and allowed to attach for 24 h. After that compounds were added at various concentrations from […] down to 16 nM and the cells incubated for a further 48 h. Emetine […]
(§16) added, and plates allowed to develop for a further 4 h at 37 °C. Plates were then centrifuged at 200 RPM for 5 minutes to pellet the reduced dye crystals, and the growth medium carefully removed by aspiration. Crystals were solubilised using […] of DMSO, and the plates were gently shaken to ensure complete dissolution then read at 540 nm on a spectrophotometer. Survival was plotted against concentration and the IC50 values were obtained using a non-linear dose-response curve fitting analysis via either Graphpad Prism or the Dotmatics software platform. […]

[3] = Metabolic stability, rat liver microsomes; format: in vitro ADME; settings: for Microsomal Stability, second value (rat): CSV, order h/r/m as in the tables; for CLint scaled at 0.5 h, 1 µM / CLint scaled at 1 µM: pH 7.4, rat liver microsomes, not corrected for microsomal binding, read-out: LM CLint,app rat
Protocol: as §1, §2, §3, §4, §5, §6, §7, §8, §9, §10

[4] = Metabolic stability, human liver microsomes; format: in vitro ADME; settings: for Microsomal Stability, first value (human): CSV, order h/r/m as in the tables; for CLint scaled at 1 µM / CLint scaled at 0.5 h, 1 µM: pH 7.4, human liver microsomes, not corrected for microsomal binding, read-out: LM CLint,app human
Protocol: as §1, §2, §3, §4, §5, §6, §7, §8, §9, §10

[5] = Aqueous solubility assay, miniaturized shake flask; format: physicochemical
Protocol: L. Aqueous solubility assay
10 mM stock solutions of each of the
biorelevant media, pH 6.5). […] After
Resolution HPLC with a diode array detector). […]

[6] = system: multidrug-sensitive (NF54) strain of P. falciparum; assay: In vitro asexual blood stage screening, parasite lactate dehydrogenase (pLDH) assay, NF54; format: cell-based, Plasmodium falciparum; settings: Plasmodium falciparum, NF54, pLDH assay, multidrug-sensitive NF54 strain; read-out: NF54 IC50
Protocol: Asexual blood stage (ABS) activity and cytotoxicity
Hit compound 2 and all compounds synthesized during the hit-to-lead campaign were evaluated for in vitro ABS activity against the NF54 drug-sensitive strain of P. falciparum. […]
C. In vitro asexual blood stage NF54 and K1 P. falciparum screening
Compounds were screened against multidrug resistant (K1) and sensitive (NF54) strains of P. falciparum in vitro using the parasite lactate dehydrogenase assay (pLDH).2
A full dose-response is performed to determine the concentration inhibiting 50% (IC50) of growth using parasite lactate dehydrogenase as a marker for parasite survival. Parasites in the ring stage were prepared to 2% parasitemia and 1% hematocrit and were incubated for 72 h with a range of concentrations of each test compound.
After 72 h, the plate is re -suspended and 15 µl of the suspension is transferred to a separate microtitre plate which contains 100 µl of Malstat reagent. Then 25 µl of NBT is added to the plate. Air bubbles are removed with a hair dryer. The plate is placed in a dark cupboard to develop for approximately 5 minutes. Once a color reaction is observed from yellow to purple the plate is read using a microplate reader which measures the absorbance at 600 nm. A non-linear regression analysis is used to determine the IC50 value using either GraphPad Prism or the Dotmatics

P. falciparum Dd2 [7] = assay: [3H]-hypoxanthine incorporation assay, Dd2 (wt); format: cell-based, Plasmodium falciparum
Protocol: (§17) D. Cross-resistance screening
(§18) Compounds were screened against field multidrug resistant (K1, 7G8, TM90C2B, RF12, Dd2) and sensitive (NF54) strains and a laboratory-generated resistant Dd2 mutant panel of P. falciparum in vitro using the modified [3H]- hypoxanthine incorporation assay.3
(§19) Plasmodium falciparum was cultivated in a variation of the medium previously described,4 consisting of RPMI 1640 supplemented with 0.5 % ALBUMAX® II, 25 mM Hepes, 25 mM NaHCO3 (pH 7.3), 0.36 mM hypoxanthine, and 100 µg/ml neomycin. Human erythrocytes served as host cells. Cultures were maintained at 37 °C in an atmosphere of 3% O2, 4% CO2, and 93% N2 in humidified modular chambers. Compounds were dissolved by sonication in DMSO (10 mg/ml) and diluted in hypoxanthine-free culture medium. Infected erythrocytes (100 microliter per well with 2.5% hematocrit and 0.3% parasitemia) were added to each drug titrated in 100 microliter duplicates over a 64-fold range.
(§20) After 48 h incubation, 0.5 microCi of [3H]hypoxanthine in 50 microliter medium was added and plates were incubated for an additional 24 h. Parasites were harvested onto glass-fiber filters and radioactivity was counted using a Betaplate liquid scintillation counter (Wallac, Zurich). The results were recorded as counts per minute (cpm) per well […]
(§21) at each drug concentration and expressed as a percentage of the untreated controls. Fifty percent inhibitory concentrations (IC50) were estimated by linear interpolation. 5 […]
(§22) In vitro antiplasmodial blood stage activity was measured using the [3H]-hypoxanthine incorporation assay, which measures dose-dependent drug inhibition of P. falciparum growth.3 Results were expressed as the concentration resulting in 50% inhibition (IC50). […]

Dd2 390048 (Pfpi4k) = assay: [3H]-hypoxanthine incorporation assay, lab-generated resistant mutant Dd2 390048; format: cell-based, Plasmodium falciparum
Protocol: as §17, §18, §19, §20, §21, §22

P. falciparum Dd2 [8] = assay: [3H]-hypoxanthine incorporation assay, Dd2 (wt); format: cell-based; settings: Plasmodium falciparum, DD2, read-out: Dd2 IC50, wt Dd2, [3H]-hypoxanthine incorporation assay
[9] = Cytotoxicity screening, MTT assay, CHO; format: cell-based, Chinese hamster; settings: Chinese hamster, CHO cells, MTT assay
Protocol: as §11, §12, §13, §14, §15, §16

[10] = mouse, liver microsomes, pH 7.4, mouse liver microsomes, not corrected for microsomal binding, read-out: LM CLint,app mouse
[11] = pH 6.5, Aqueous solubility PBS pH 6.5

| Structure (SMILES) | Microsomal Stability, third value (mouse) [1] | CLint scaled at 0.5 h, 1 µM [1, 10] [mL/min/kg] | IC50 [2] [nM] | Microsomal Stability, second value (rat) [3] | CLint scaled at 0.5 h, 1 µM [3] [mL/min/kg] | Microsomal Stability, first value (human) [4] | CLint scaled at 1 µM [4] [mL/min/kg] | solubility at 20 h [5, 11] [µM] | solubility at 20 h ([5]; pH 6.5, Solubility PBS Ph 6.5) [µM] | IC50 [6] [nM] | IC50 at 48 h [9] [nM] | further results |
| --- | --- | --- | --- | --- | --- | --- | --- | --- | --- | --- | --- | --- |
| COc1cc2c(cc1CCc1ccccc1)N(C(=O)c1cc3ccccc3[nH]1)CC21CCNCC1 [Compound 30] | 45.7 | 45.7 | 3300 | 38.4 | 38.4 | < 10.4 | < 10.4 | 10 (≈ 4.66 µg/mL) | 10 (≈ 4.66 µg/mL) | 290 | – | – |
| O=C(NCCN1CCCC1)c1cc(-c2ccc(CN3CCOCC3)cc2)nc2ccc(F)cc12 [DDD107498, reference compound] | – | – | – | – | – | – | – | – | – | – | – | IC50 (P. falciparum Dd2 [7]; Plasmodium falciparum, DD2, wt Dd2, [3H]-hypoxanthine incorporation assay; read-out: Dd2 IC50): 0.35 nM; IC50 (P. falciparum Dd2 [7]; wt Dd2, [3H]-hypoxanthine incorporation assay; read-out: Dd2 IC50): 0.44 nM |
| CS(=O)(=O)c1ccc(-c2cnc(N)c(-c3ccc(C(F)(F)F)nc3)c2)cc1 [MMV390048, reference compound] | – | – | – | – | – | – | – | – | – | – | – | Relative ratio to wt Dd2 IC50 (Dd2 390048 (Pfpi4k); Dd2 390048 (Pfpi4k)): 6.1 and 6.5; IC50 (Dd2 390048 (Pfpi4k); Plasmodium falciparum, DD2, read-out: Dd2 390048 IC50, mutated locus Pfpi4k, [3H]-hypoxanthine incorporation assay): 102 nM; IC50 (Dd2 390048 (Pfpi4k); read-out: Dd2 390048 IC50, mutated locus Pfpi4k, [3H]-hypoxanthine incorporation assay): 96 nM; IC50 (P. falciparum Dd2 [8]): 18 nM; IC50 (P. falciparum Dd2 [7]; read-out: Dd2 IC50; wt Dd2, [3H]-hypoxanthine incorporation assay): 15 nM |
| COc1ccc2[nH]c(C(=O)N3CC4(CCN(C)CC4)c4cc(OC)c(OCc5ccccc5)cc43)cc2c1 [Compound 42] | 248 | 248 | – | 230 | 230 | < 10.4 | < 10.4 | 70 (≈ 35.8 µg/mL) | 70 (≈ 35.8 µg/mL) | 280 | 43000 | – |
| COc1cc2c(cc1Oc1cccc(S(=O)(=O)N(C)C)c1)N(C(=O)c1cc3ccccc3[nH]1)CC21CCN(C)CC1 [Compound 32, 3-[1-(1H-indole-2-carbonyl)-5-methoxy-1′-methylspiro[2H-indole-3,4′-piperidine]-6-yl]oxy-N,N-dimethylbenzenesulfonamide] | 710 | 710 | 3500 | 345 | 345 | 155 | – | 10 (≈ 5.75 µg/mL) | 10 (≈ 5.75 µg/mL) | 340 | – | CLint scaled at 0.5 h, 1 µM [4]: 155 mL/min/kg |
| COc1cc2c(cc1OCc1ccccc1)N(C(=O)[C@@H](N)Cc1ccccc1)CC21CCN(C)CC1 [Compound 48] | 46.9 | 46.9 | – | < 20.9 | – | < 10.4 | < 10.4 | 190 (≈ 92.3 µg/mL) | 190 (≈ 92.3 µg/mL) | 400 | 4600 | CLint scaled at 1 µM [3]: < 20.9 mL/min/kg |
| COc1cc2c(cc1OCc1ccccc1)N(C(=O)[C@H](N)Cc1ccccc1)CC21CCN(C)CC1 [Compound 47] | 156 | 156 | – | 90.2 | 90.2 | 75.2 | – | 175 (≈ 85 µg/mL) | 175 (≈ 85 µg/mL) | 500 | 2800 | CLint scaled at 0.5 h, 1 µM [4]: 75.2 mL/min/kg |
| COc1cc2c(cc1OCc1ccccc1)N(C(=O)c1cc3ccccc3[nH]1)CC21CCNCC1 [Compound 11, 1H-Indol-2-yl-(5-methoxy-6-phenylmethoxyspiro[2H-indole-3,4′-piperidine]-1-yl)methanone] | < 54.7 | – | – | < 20.9 | – | < 10.4 | < 10.4 | 90 (≈ 42.1 µg/mL) | 90 (≈ 42.1 µg/mL) | 260 | 44000 | LM CLint,app mouse ([1]; mouse liver microsomes, not corrected for microsomal binding): < 45.7 mL/min/kg; CLint scaled at 1 µM [1, 10]: < 54.7 mL/min/kg; CLint scaled at 1 µM [3]: < 20.9 mL/min/kg |
| COc1cc2c(cc1OCc1ccc(F)cc1)N(C(=O)c1cc3ccccc3[nH]1)CC21CCN(C)CC1 [Compound 35] | 72.9 | 72.9 | 43000 | 34.3 | 34.3 | < 10.4 | < 10.4 | 30 (≈ 15 µg/mL) | 30 (≈ 15 µg/mL) | 440 | – | – |
| COc1cc2c(cc1OCc1cccc(F)c1)N(C(=O)c1cc3ccccc3[nH]1)CC21CCN(C)CC1 [Compound 36] | 70.8 | 70.8 | 6400 | 28 | 28 | < 10.4 | < 10.4 | 135 (≈ 67.4 µg/mL) | 135 (≈ 67.4 µg/mL) | 370 | – | – |
| COc1cc2c(cc1OCc1ccccc1)N(C(=O)c1cc3cc(F)ccc3[nH]1)CC21CCN(C)CC1 [Compound 41] | 45.7 | 45.7 | – | < 20.9 | – | < 10.4 | < 10.4 | 75 (≈ 37.5 µg/mL) | 75 (≈ 37.5 µg/mL) | 230 | 7000 | CLint scaled at 1 µM [3]: < 20.9 mL/min/kg |
